Experimental findings from patent publication US20250304596A1, “PYRAZINE DERIVATIVES AND USES THEREOF” (FOGHORN THERAPEUTICS INC., priority 2022, published 2025) are described below.

One assay addresses T1, HiBit-BRM fusion protein (Homo sapiens, UniProt P51531).
T1 construct: expressed in transfected cells
Kind of assay: HiBiT-BRM cell-based degradation assay (Nano-Glo HiBiT Lytic Detection, 24 h). Particulars: stable HeLa cell line expressing HiBiT-BRM; for DC50: read-out: BRM HiBit Degradation IC50. As to the method: (§1) Procedure: A stable HeLa cell line expressing HiBiT-BRM was generated. On day 0, 5000 cells were seeded in 40 μL of media into each well of 384-well cell culture plates. On day 1, cells were treated with 120 nL DMSO or 120 nL of 3-fold serially DMSO-diluted compounds (10 points in duplicate with 30 μM as final top dose). Subsequently plates were incubated for 24 h in a standard tissue culture incubator and equilibrated at room temperature for 15 minutes. Nano-Glo HiBiT Lytic Detection System (Promega N3050) reagent was freshly prepared and 20 ul was added to each well. Upon addition of this LgBit-containing reagent, the HiBiT and LgBiT proteins associate to form the luminescent NanoBiT Iuciferase. The plates were shaken for 10 minutes at room temperature and the bioluminescence read using an EnVision plate reader (PerkinElmer).
(§2) The degradation % was calculated using the following formula: % degradation=100%-100%×(LumSample−LumLC)/(LumHC−LumLC). DMSO treated cells are employed as High Control (HC) and 2 μM of a known BRM/BRG1 degrader standard treated cells are employed as Low Control (LC).
(In general: With HiBiT, luminescence reflects the tagged protein that the partner subunit can reach.)

Assay [1] addresses T2, HiBit-BRG1 fusion protein (Homo sapiens, UniProt P51532).
T2 construct: expressed in transfected cells
Kind of assay: HiBiT-BRG1 cell-based degradation assay (Nano-Glo HiBiT Lytic Detection, 24 h). To be noted: stable HeLa cell line expressing HiBit-BRG1 and LgBit; for Dmax: read-out: BRG1 HiBit Degradation Maximum (%); for DC50: read-out: BRMG1 HiBit Degradation IC50. As to the method:
as §1
For measurement of BRG1 degradation, a stable HeLa cell line expressing HiBit-BRG1 and LgBit was generated. The same protocol as above was then followed.
as §2

T2 sequence (P51532 whole entry, the tested form may be a part): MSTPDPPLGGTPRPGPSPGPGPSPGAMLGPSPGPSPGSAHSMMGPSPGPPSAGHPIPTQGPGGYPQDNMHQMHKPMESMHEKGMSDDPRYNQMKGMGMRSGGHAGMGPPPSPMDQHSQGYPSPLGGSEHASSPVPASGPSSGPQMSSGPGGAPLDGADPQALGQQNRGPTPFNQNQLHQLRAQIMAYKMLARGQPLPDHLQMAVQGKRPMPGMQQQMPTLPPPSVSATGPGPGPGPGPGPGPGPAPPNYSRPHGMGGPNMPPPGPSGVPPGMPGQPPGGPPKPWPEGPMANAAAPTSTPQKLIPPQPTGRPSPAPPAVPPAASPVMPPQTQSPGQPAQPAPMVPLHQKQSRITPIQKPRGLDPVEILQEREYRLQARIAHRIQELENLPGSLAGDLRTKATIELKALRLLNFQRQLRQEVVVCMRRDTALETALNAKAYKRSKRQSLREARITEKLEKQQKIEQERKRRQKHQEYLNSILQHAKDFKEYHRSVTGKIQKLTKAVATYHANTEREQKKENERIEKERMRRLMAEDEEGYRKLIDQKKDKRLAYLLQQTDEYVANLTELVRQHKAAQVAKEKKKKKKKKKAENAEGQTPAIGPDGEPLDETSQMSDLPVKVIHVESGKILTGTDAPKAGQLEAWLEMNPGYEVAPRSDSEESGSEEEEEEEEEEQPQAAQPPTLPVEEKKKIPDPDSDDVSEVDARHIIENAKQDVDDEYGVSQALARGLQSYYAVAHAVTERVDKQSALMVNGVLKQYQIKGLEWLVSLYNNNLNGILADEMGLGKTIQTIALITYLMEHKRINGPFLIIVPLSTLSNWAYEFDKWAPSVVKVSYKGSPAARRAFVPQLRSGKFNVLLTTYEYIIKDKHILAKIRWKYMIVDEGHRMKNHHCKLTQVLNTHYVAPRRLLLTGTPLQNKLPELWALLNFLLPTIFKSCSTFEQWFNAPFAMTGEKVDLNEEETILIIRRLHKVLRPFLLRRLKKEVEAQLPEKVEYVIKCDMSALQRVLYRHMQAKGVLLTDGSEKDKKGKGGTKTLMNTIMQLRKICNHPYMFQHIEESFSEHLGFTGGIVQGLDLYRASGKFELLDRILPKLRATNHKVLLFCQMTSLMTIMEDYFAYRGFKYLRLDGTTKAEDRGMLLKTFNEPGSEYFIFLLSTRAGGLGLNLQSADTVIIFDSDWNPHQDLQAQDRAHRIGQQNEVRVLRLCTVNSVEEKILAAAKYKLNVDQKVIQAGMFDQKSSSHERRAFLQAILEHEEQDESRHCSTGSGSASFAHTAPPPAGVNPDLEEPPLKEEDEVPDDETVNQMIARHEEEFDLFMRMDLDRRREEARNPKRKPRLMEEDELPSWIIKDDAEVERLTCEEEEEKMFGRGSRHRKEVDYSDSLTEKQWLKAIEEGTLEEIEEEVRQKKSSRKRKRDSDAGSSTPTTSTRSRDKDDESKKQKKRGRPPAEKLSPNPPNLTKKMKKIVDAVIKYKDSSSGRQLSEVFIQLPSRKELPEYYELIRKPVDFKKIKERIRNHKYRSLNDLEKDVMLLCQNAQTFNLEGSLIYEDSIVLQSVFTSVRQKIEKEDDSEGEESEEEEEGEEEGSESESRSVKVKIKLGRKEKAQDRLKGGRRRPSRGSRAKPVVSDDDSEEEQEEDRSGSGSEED
T1 sequence (P51531 whole entry, the tested form may be a part): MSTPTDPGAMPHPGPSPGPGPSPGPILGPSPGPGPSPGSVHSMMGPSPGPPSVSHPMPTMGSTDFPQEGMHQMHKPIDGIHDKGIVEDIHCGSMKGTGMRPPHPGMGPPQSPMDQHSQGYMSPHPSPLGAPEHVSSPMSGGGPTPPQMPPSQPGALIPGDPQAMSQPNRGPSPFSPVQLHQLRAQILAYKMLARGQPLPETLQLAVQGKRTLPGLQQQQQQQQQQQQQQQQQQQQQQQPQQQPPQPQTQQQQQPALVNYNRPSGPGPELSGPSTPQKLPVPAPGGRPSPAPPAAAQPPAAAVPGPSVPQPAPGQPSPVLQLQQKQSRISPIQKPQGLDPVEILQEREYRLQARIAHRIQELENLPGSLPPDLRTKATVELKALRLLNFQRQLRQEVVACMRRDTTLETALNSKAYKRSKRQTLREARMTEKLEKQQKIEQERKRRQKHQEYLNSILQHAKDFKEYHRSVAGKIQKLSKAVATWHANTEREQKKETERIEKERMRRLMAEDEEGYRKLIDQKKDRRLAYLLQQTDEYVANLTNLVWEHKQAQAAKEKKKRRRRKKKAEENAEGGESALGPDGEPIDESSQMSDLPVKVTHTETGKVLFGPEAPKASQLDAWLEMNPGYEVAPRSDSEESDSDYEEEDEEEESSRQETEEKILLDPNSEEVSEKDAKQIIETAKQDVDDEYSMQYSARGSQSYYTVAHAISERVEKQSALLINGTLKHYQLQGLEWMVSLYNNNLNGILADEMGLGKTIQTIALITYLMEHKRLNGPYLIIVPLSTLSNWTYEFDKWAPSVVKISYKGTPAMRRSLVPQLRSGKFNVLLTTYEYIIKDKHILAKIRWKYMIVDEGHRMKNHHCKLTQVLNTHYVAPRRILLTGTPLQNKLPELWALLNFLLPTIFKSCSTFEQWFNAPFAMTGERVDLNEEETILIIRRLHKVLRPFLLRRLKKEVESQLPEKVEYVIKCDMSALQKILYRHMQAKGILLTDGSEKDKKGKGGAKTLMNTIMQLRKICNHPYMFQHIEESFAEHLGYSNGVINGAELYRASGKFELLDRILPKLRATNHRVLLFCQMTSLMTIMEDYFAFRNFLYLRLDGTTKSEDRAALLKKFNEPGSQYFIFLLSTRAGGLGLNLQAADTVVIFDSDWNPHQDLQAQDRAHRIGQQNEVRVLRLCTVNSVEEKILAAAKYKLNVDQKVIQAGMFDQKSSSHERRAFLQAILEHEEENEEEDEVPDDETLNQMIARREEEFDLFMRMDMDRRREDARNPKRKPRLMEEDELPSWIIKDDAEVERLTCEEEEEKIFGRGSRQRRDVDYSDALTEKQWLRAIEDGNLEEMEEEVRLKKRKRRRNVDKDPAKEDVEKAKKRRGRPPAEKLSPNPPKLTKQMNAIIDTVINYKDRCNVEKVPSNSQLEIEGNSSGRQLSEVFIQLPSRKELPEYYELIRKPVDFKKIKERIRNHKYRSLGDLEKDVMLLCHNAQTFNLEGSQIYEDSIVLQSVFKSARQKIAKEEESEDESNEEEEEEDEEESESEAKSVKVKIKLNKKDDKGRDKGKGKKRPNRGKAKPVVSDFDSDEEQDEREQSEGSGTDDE

Turning to `Cc1ncsc1-c1ccc([C@H](C)NC(=O)[C@@H]2C[C@@H](O)CN2C(=O)[C@@H](c2cc(N3CC4(CC(c5cc6cc(-c7ccccc7O)nnc6s5)C4)C3)no2)C(C)C)cc1` (single isomer, unassigned) [Compound 1], on HiBit-BRM fusion protein, the “BRM HiBit Degradation Maximum (%)” value is listed as “A (“A” indicates maximum degradation ≥75%)” and the DC50 was below 10 nM. Besides, in assay [1], the Dmax is above 75% and the DC50 was above 10 nM.

In the case of `Cc1cc(-c2cc([C@H](C(=O)N3C[C@H](O)C[C@H]3C(=O)N[C@@H](C)c3ccc(-c4scnc4C)cc3)C(C)C)on2)cnc1N1CCC(c2cc3cc(-c4ccccc4O)nnc3s2)CC1` (single isomer, unassigned) [Compound 2], on HiBit-BRM fusion protein, the “BRM HiBit Degradation Maximum (%)” value is reported as “A (“A” indicates maximum degradation ≥75%)” and the DC50 was above 10 nM. Besides, in assay [1], the Dmax was below 50% and the DC50 was above 1000 nM.

`Cc1cc(-c2cc([C@H](C(=O)N3C[C@H](O)C[C@H]3C(=O)N[C@@H](C)c3ccc(-c4scnc4C)cc3)C(C)C)on2)ccc1N1CCC(c2sc3nnc(-c4ccccc4O)cc3c2C)CC1` (single isomer, unassigned) [Compound 3]: on HiBit-BRM fusion protein, the “BRM HiBit Degradation Maximum (%)” value was “A (“A” indicates maximum degradation ≥75%)” and the DC50 was above 10 nM. Also, in assay [1], the Dmax was below 50% and the DC50 was above 1000 nM.

Regarding `Cc1ncsc1-c1ccc([C@H](C)NC(=O)[C@@H]2C[C@@H](O)CN2C(=O)[C@@H](c2cc(-c3cnc(N4CC[C@@H](c5cc6cc(-c7ccccc7O)nnc6s5)C4)nc3)no2)C(C)C)cc1` (single isomer, unassigned) [Compound 5], on HiBit-BRM fusion protein, the “BRM HiBit Degradation Maximum (%)” value is “A (“A” indicates maximum degradation ≥75%)” and the DC50 was below 10 nM. Also, in assay [1], the Dmax was below 50% and the DC50 was above 1000 nM.

In the case of `Cc1ncsc1-c1ccc([C@H](C)NC(=O)[C@@H]2C[C@@H](O)CN2C(=O)[C@@H](c2cc(N3CCN(c4ncc(-c5sc6nnc(-c7ccccc7O)cc6c5C)cn4)CC3)no2)C(C)C)cc1` (single isomer, unassigned) [Compound 31], at HiBit-BRM fusion protein, the “BRM HiBit Degradation Maximum (%)” value was “B (“B” indicates maximum degradation ≥50%)” and the DC50 is above 10 nM. For the same compound, in assay [1], the Dmax was below 50% and the DC50 is above 1000 nM.

As for `Cc1ncsc1-c1ccc([C@H](C)NC(=O)[C@@H]2C[C@@H](O)CN2C(=O)[C@@H](c2cc(C#Cc3sc4nnc(-c5ccccc5O)cc4c3C)no2)C(C)C)cc1` (single isomer, unassigned) [Compound 37], on HiBit-BRM fusion protein, the “BRM HiBit Degradation Maximum (%)” value is recorded as “A (“A” indicates maximum degradation ≥75%)” and the DC50 was above 100 nM. Moreover, in assay [1], the Dmax was above 50% and the DC50 was above 1000 nM.

`Cc1ncsc1-c1ccc([C@H](C)NC(=O)[C@@H]2C[C@@H](O)CN2C(=O)[C@@H](c2cc(Oc3cnc(N4CCC(c5sc6nnc(-c7ccccc7O)cc6c5C)CC4)nc3)no2)C(C)C)cc1` (single isomer, unassigned) [Compound 51]: on HiBit-BRM fusion protein, the “BRM HiBit Degradation Maximum (%)” value is “A (“A” indicates maximum degradation ≥75%)” and the DC50 is above 10 nM. For the same compound, in assay [1], the Dmax was below 50% and the DC50 was above 1000 nM.

For the compound `Cc1ncsc1-c1ccc([C@H](C)NC(=O)[C@@H]2C[C@@H](O)CN2C(=O)[C@@H](c2cc(N3CCC(c4cnc(N5CCC(c6sc7nnc(-c8ccccc8O)cc7c6C)CC5)nc4)CC3)no2)C(C)C)cc1` (single isomer, unassigned) [Compound 60], at HiBit-BRM fusion protein, the “BRM HiBit Degradation Maximum (%)” value was “A (“A” indicates maximum degradation ≥75%)” and the DC50 was below 10 nM. In assay [1], the Dmax is above 50% and the DC50 was above 10 nM.

Regarding `Cc1ncsc1-c1ccc([C@H](C)NC(=O)[C@@H]2C[C@@H](O)CN2C(=O)C(c2cc(Oc3nccc(N4CCC(c5sc6nnc(-c7ccccc7O)cc6c5C)CC4)n3)no2)C(C)C)cc1` (single isomer, unassigned) [Compound 61, (2S,4R)-4-hydroxy-1-[(2R*)-2-{3-[(4-{4-[3-(2-hydroxyphenyl)-5-methylthieno[2,3-c]pyridazin-6-yl]piperidin-1-yl}pyrimidin-2-yl)oxy]-1,2-oxazol-5-yl}-3-methylbutanoyl]-N-[(1S)-1-[4-(4-methyl-1,3-thiazol-5-yl)phenyl]ethyl]pyrrolidine-2-carboxamide], on HiBit-BRM fusion protein, the “BRM HiBit Degradation Maximum (%)” value was “C (“C” indicates maximum degradation <50%)” and the DC50 was above 1000 nM. In addition, in assay [1], the Dmax was below 50% and the DC50 was above 1000 nM.

Turning to `Cc1ncsc1-c1ccc([C@H](C)NC(=O)[C@@H]2C[C@@H](O)CN2C(=O)[C@@H](c2cc(Oc3ccnc(N4CCC(c5sc6nnc(-c7ccccc7O)cc6c5C)CC4)n3)no2)C(C)C)cc1` (single isomer, unassigned) [Compound 62], on HiBit-BRM fusion protein, the “BRM HiBit Degradation Maximum (%)” value was “C (“C” indicates maximum degradation <50%)” and the DC50 is above 1000 nM. In assay [1], the Dmax is below 50% and the DC50 was above 1000 nM.

With `Cc1ncsc1-c1ccc([C@H](C)NC(=O)[C@@H]2C[C@@H](O)CN2C(=O)[C@@H](c2cc(-c3cnc(N4CC(c5sc6nnc(-c7ccccc7O)cc6c5C)C4)nc3)no2)C(C)C)cc1` (single isomer, unassigned) [Compound 63], on HiBit-BRM fusion protein, the “BRM HiBit Degradation Maximum (%)” value is “A (“A” indicates maximum degradation ≥75%)” and the DC50 is below 10 nM. Besides, in assay [1], the Dmax was below 50% and the DC50 was above 1000 nM.

Consider `Cc1ncsc1-c1ccc([C@H](C)NC(=O)[C@@H]2C[C@@H](O)CN2C(=O)[C@@H](c2cc([C@H]3CC[C@@H](c4cnc(N5CCC(c6sc7nnc(-c8ccccc8O)cc7c6C)CC5)nc4)CC3)no2)C(C)C)cc1` (single isomer, unassigned) [Compound 65], for which, at HiBit-BRM fusion protein, the “BRM HiBit Degradation Maximum (%)” value is “A (“A” indicates maximum degradation ≥75%)” and the DC50 was above 10 nM. Also, in assay [1], the Dmax is below 50% and the DC50 is above 1000 nM.

Take `Cc1ncsc1-c1ccc([C@H](C)NC(=O)[C@@H]2C[C@@H](O)CN2C(=O)[C@@H](c2cc(-c3cnc(N4CCC(c5sc6nnc(-c7ccccc7O)cc6c5C)CC4)nc3)no2)C(C)C)cc1` (single isomer, unassigned) [Compound 66]: on HiBit-BRM fusion protein, the “BRM HiBit Degradation Maximum (%)” value was “A (“A” indicates maximum degradation ≥75%)” and the DC50 was below 10 nM. Further, in assay [1], the Dmax is below 50% and the DC50 was above 1000 nM.

For the compound `Cc1ncsc1-c1ccc([C@H](C)NC(=O)[C@@H]2C[C@@H](O)CN2C(=O)[C@@H](c2cc(-c3cnc(CN4CCC(c5cc6cc(-c7ccccc7O)nnc6s5)CC4)nc3)no2)C(C)C)cc1` (single isomer, unassigned) [Compound 99], at HiBit-BRM fusion protein, the “BRM HiBit Degradation Maximum (%)” value is given as “B (“B” indicates maximum degradation ≥50%)” and the DC50 is above 10 nM. For the same compound, in assay [1], the Dmax is below 50%.

For the compound `Cc1nc(N2CCC(c3sc4nnc(-c5ccccc5O)cc4c3C)CC2)ccc1-c1noc(C(C(=O)N2C[C@H](O)C[C@H]2C(=O)N[C@@H](C)c2ccc(-c3scnc3C)cc2)C(C)C)c1Cl` (stereo in doubt) [Compound 21, (2S,4R)-1-((S)-2-(4-chloro-3-(6-(4-(3-(2-hydroxyphenyl)-5-methylthieno[2,3-c]pyridazin-6-yl)piperidin-1-yl)-2-methylpyridin-3-yl)isoxazol-5-yl)-3-methylbutanoyl)-4-hydroxy-N-((S)-1-(4-(4-methylthiazol-5-yl)phenyl)ethyl)pyrrolidine-2-carboxamide], on HiBit-BRM fusion protein, the “BRM HiBit Degradation Maximum (%)” value is “A (“A” indicates maximum degradation ≥75%)” and the DC50 is above 10 nM. For the same compound, in assay [1], the Dmax was above 50% and the DC50 is above 100 nM.

For the compound `Cc1ncsc1-c1ccc([C@H](C)NC(=O)[C@@H]2C[C@@H](O)CN2C(=O)[C@@H](c2cc(-c3cnc(N4CCC(c5sc6nnc(-c7ccccc7O)cc6c5C)[C@@H](C)C4)nc3)no2)C(C)C)cc1` (stereo in doubt) [Compound 35, (2S,4R)-4-hydroxy-1-((R)-2-(3-(2-((3R,4R)-4-(3-(2-hydroxyphenyl)-5-methylthieno[2,3-c]pyridazin-6-yl)-3-methylpiperidin-1-yl)pyrimidin-5-yl)isoxazol-5-yl)-3-methylbutanoyl)-N-((S)-1-(4-(4-methylthiazol-5-yl)phenyl)ethyl)pyrrolidine-2-carboxamide], at HiBit-BRM fusion protein, the “BRM HiBit Degradation Maximum (%)” value is “A (“A” indicates maximum degradation ≥75%)” and the DC50 was below 10 nM. Further, in assay [1], the Dmax was below 50% and the DC50 was above 1000 nM.
